Laboratory results reported in patent publication US9012443B2 (Amgen Inc., priority 2011, dated 2015).

Each compound was assayed against Nav 1.7 (Homo sapiens (Human), UniProt Q15858) (assay: Nav 1.7 IWQ in vitro assay (IonWorks Quattro population patch-clamp)). Details: 293 cells stably transfected with Nav 1.7; first part of table; read-out: Nav 1.7 IWQ IC50.
Type: cell-based
Procedure: Nav 1.7 or Nav 1.5 IWQ In Vitro Assay
293 Cells stably transfected with either Nav 1.7 or Nav 1.5 were recorded in population patch-clamp mode with the IonWorks® Quattro automated electrophysiology system in accordance with the manufacturer's specifications (Molecular Devices, LLC, Sunnyvale, Calif.). Sodium channel currents were measured in response to a train of depolarizations that induced successively greater inactivation.
Cells were then left unclamped for a period of 3 to 8 minutes while a single concentration of test compound was added. Cells were then reclamped and put through the same voltage protocol. Current at the end of the 26th pulse to −20 mV was subtracted from the peak current evoked by the 26th pulse to −20 mV to correct for leak current. Percent block was calculated for each concentration in duplicate, and IC50 curves were fitted to percent block as a function of concentration.

Sequence of Nav 1.7 (Q15858 whole entry): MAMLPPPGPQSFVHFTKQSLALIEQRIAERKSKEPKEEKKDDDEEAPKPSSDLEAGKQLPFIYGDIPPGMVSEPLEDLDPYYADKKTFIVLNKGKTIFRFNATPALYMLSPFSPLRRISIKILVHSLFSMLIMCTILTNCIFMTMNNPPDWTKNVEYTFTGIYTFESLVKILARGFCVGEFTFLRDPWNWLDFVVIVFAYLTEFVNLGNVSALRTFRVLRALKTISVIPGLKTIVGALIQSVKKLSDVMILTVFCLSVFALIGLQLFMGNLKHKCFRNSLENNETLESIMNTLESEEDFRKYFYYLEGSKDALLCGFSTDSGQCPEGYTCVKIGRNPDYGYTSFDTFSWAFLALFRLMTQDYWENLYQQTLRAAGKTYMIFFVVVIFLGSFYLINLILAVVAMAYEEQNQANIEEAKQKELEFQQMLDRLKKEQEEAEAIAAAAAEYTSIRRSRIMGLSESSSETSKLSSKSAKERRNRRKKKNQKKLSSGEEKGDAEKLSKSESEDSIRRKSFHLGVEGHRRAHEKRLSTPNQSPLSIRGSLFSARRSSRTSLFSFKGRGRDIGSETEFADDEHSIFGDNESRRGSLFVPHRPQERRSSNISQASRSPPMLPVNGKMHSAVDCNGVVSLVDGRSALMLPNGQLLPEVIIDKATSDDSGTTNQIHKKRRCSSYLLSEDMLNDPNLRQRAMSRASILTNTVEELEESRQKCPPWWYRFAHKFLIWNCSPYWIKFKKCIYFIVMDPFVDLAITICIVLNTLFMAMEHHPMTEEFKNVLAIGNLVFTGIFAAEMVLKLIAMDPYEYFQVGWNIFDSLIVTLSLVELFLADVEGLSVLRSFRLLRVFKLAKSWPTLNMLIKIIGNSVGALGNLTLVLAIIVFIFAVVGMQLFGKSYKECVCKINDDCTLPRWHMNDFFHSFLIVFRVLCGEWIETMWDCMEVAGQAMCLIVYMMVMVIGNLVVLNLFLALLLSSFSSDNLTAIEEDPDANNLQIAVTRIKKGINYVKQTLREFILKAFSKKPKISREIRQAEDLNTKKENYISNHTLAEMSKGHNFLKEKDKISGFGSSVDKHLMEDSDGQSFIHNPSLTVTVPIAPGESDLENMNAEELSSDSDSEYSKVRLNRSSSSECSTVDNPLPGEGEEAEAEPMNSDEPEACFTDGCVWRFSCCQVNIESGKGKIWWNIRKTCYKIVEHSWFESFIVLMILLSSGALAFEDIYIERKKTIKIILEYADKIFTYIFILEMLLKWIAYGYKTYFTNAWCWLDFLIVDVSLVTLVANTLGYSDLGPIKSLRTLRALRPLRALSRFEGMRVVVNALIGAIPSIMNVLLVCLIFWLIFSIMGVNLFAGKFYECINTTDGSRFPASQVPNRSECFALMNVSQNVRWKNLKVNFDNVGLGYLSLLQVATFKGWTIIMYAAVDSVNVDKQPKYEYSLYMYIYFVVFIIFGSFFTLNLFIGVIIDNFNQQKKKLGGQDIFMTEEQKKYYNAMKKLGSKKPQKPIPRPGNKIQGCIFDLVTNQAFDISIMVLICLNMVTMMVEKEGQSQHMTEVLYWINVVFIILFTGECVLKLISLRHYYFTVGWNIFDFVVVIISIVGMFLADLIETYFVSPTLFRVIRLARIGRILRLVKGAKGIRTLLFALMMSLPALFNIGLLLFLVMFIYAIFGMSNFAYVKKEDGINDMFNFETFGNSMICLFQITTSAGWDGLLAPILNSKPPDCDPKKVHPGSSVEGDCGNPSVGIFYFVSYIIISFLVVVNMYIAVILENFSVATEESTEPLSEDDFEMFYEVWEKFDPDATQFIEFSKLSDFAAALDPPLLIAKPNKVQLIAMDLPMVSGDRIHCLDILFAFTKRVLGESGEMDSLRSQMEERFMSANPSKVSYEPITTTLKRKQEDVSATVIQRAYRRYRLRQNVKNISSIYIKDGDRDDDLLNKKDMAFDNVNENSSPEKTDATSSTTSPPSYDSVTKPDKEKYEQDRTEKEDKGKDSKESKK

SMILES | IC50
COc1cc(Cl)ccc1-c1cccc2cc(S(=O)(=O)Nc3ccn(CCN(C)C)n3)ccc12 [Example 43] | 4890 nM
COc1cc(Cl)ccc1-c1cccc2cc(S(=O)(=O)Nc3ncco3)ccc12 [Example 45] | 225 nM
O=S(=O)(Nc1ncco1)c1ccc2c(-c3ccc(C(F)(F)F)cc3Cl)cccc2c1 [Example 49] | 4870 nM
O=S(=O)(Nc1ncns1)c1ccc2c(-c3ccc(C(F)(F)F)cc3O)nccc2c1 [Example 58, 1-(2-HYDROXY-4-(TRIFLUOROMETHYL)PHENYL)-N-(1,2,4-THIADIAZOL-5-YL)ISOQUINOLINE-6-SULFONAMIDE] | 600 nM
COc1cc(OC)c(-c2nccc3cc(S(=O)(=O)Nc4ncns4)ccc23)c(OC)c1 [Example 60, N-(1,2,4-THIADIAZOL-5-YL)-1-(2,4,6-TRIMETHOXYPHENYL)ISOQUINOLINE-6-SULFONAMIDE] | 1560 nM
O=S(=O)(Nc1ncns1)c1ccc2c(-c3ccc(Cl)cc3C(F)(F)F)nccc2c1 [Example 63, 1-(4-CHLORO-2-(TRIFLUOROMETHYL)PHENYL)-N-(1,2,4-THIADIAZOL-5-YL)ISOQUINOLINE-6-SULFONAMIDE] | 330 nM
O=S(=O)(Nc1ncns1)c1ccc2c(-c3ccc(Cl)cc3)nccc2c1 [Example 64, 1-(4-CHLOROPHENYL)-N-(1,2,4-THIADIAZOL-5-YL)ISOQUINOLINE-6-SULFONAMIDE] | 770 nM
O=S(=O)(Nc1ccncn1)c1ccc2c(-c3ccc(C(F)(F)F)cc3-c3ccncc3)nccc2c1 [Example 65, 1-(2-(PYRIDIN-4-YL)-4-(TRIFLUOROMETHYL)PHENYL)-N-(PYRIMIDIN-4-YL)ISOQUINOLINE-6-SULFONAMIDE] | 320 nM
CN1CC=C(c2cc(C(F)(F)F)ccc2-c2nccc3cc(S(=O)(=O)Nc4ccncn4)ccc23)CC1 [Example 68, 1-(2-(1-METHYL-1,2,3,6-TETRAHYDROPYRIDIN-4-YL)-4-(TRIFLUOROMETHYL)PHENYL)-N-(PYRIMIDIN-4-YL)ISOQUINOLINE-6-SULFONAMIDE] | 1520 nM
O=S(=O)(Nc1nccs1)c1ccc2c(-c3ccc(C(F)(F)F)cc3Cl)cccc2c1 [Example 79] | 900 nM
O=S(=O)(Nc1nccs1)c1ccc2c(N3CCCC3c3ccccc3)cccc2c1 (stereo not shown) [Example 80] | 1200 nM

Now from value to compound:

IC50 | SMILES
220 nM | O=S(=O)(Nc1ncns1)c1ccc2c(-c3ccc(C(F)(F)F)c(Cl)c3)nccc2c1 [Example 57, 1-(3-CHLORO-4-(TRIFLUOROMETHYL)PHENYL)-N-(1,2,4-THIADIAZOL-5-YL)ISOQUINOLINE-6-SULFONAMIDE]
120 nM | O=S(=O)(Nc1ccncn1)c1ccc2c(-c3ccc(C(F)(F)F)cc3Br)nccc2c1 [Example 66, 1-(2-BROMO-4-(TRIFLUOROMETHYL)PHENYL)-N-(PYRIMIDIN-4-YL)ISOQUINOLINE-6-SULFONAMIDE]
100 nM | O=S(=O)(Nc1ccncn1)c1ccc2c(-c3ccc(C(F)(F)F)cc3-c3ccncc3)cccc2c1 [Example 75]
90 nM | Cc1cc(Cl)ccc1-c1nccc2cc(S(=O)(=O)Nc3ncns3)ccc12 [Example 62]
90 nM | CN1CC=C(c2cc(C(F)(F)F)ccc2-c2cccc3cc(S(=O)(=O)Nc4nccs4)ccc23)CC1 [Example 78]
80 nM | COc1cc(C(F)(F)F)ccc1-c1nccc2cc(S(=O)(=O)Nc3ccncn3)ccc12 [Example 67, 1-(2-METHOXY-4-(TRIFLUOROMETHYL)PHENYL)-N-(PYRIMIDIN-4-YL)ISOQUINOLINE-6-SULFONAMIDE]
80 nM | Cn1nccc1-c1cc(C(F)(F)F)ccc1-c1cccc2cc(S(=O)(=O)Nc3ccncn3)ccc12 [Example 74]
70 nM | CN1CC=C(c2cc(C(F)(F)F)ccc2-c2cccc3cc(S(=O)(=O)Nc4ccncn4)ccc23)CC1 [Example 76]
70 nM | O=S(=O)(Nc1nccs1)c1ccc2c(-c3ccc(C(F)(F)F)cc3C3=CCNCC3)cccc2c1 [Example 77]
70 nM | CN1CC(n2nccc2-c2cc(C(F)(F)F)ccc2-c2cccc3cc(S(=O)(=O)Nc4nccs4)ccc23)C1 [Example 82]
60 nM | O=S(=O)(Nc1ncns1)c1ccc2c(-c3ccc(C(F)(F)F)cc3Cl)nccc2c1 [Example 56, 1-(2-CHLORO-4-(TRIFLUOROMETHYL)PHENYL)-N-(1,2,4-THIADIAZOL-5-YL)ISOQUINOLINE-6-SULFONAMIDE]
60 nM | COc1ccc(-c2nccc3cc(S(=O)(=O)Nc4ncns4)ccc23)c(OC)c1 [Example 59, 1-(2,4-DIMETHOXYPHENYL)-N-(1,2,4-THIADIAZOL-5-YL)ISOQUINOLINE-6-SULFONAMIDE]
60 nM | O=S(=O)(Nc1ccncn1)c1ccc2c(-c3ccc(C(F)(F)F)cc3C3=CCNCC3)nccc2c1 [Example 69, N-(PYRIMIDIN-4-YL)-1-(2-(1,2,3,6-TETRAHYDROPYRIDIN-4-YL)-4-(TRIFLUOROMETHYL)PHENYL)ISOQUINOLINE-6-SULFONAMIDE 2,2,2-TRIFLUOROACETATE]
60 nM | CN1CC=C(c2cc(C(F)(F)F)ccc2-c2nccc3cc(S(=O)(=O)Nc4nccs4)ccc23)CC1 [Example 72, 1-(2-(1-METHYL-1,2,3,6-TETRAHYDROPYRIDIN-4-YL)-4-(TRIFLUOROMETHYL)PHENYL)-N-(THIAZOL-2-YL)ISOQUINOLINE-6-SULFONAMIDE]
50 nM | COc1cc(C(F)(F)F)ccc1-c1cccc2cc(S(=O)(=O)Nc3ccncn3)ccc12 [Example 42]
40 nM | O=S(=O)(Nc1nccs1)c1ccc2c(-c3ccc(C(F)(F)F)cc3-c3ccnn3C3CNC3)cccc2c1 [Example 81]
36 nM | COc1cc(Cl)ccc1-c1cccc2cc(S(=O)(=O)Nc3nccs3)ccc12 [Example 46]
30 nM | O=S(=O)(Nc1ccncn1)c1ccc2c(-c3ccc(C(F)(F)F)cc3C3=CCNCC3)cccc2c1 [Example 48]
20 nM | O=S(=O)(Nc1nccs1)c1ccc2c(-c3ccc(C(F)(F)F)cc3-c3ccncc3)nccc2c1 [Example 71, 1-(2-(PYRIDIN-4-YL)-4-(TRIFLUOROMETHYL)PHENYL)-N-(THIAZOL-2-YL)ISOQUINOLINE-6-SULFONAMIDE]
15 nM | O=S(=O)(Nc1nccs1)c1ccc2c(-c3ccc(C(F)(F)F)cc3C3=CCNCC3)nccc2c1 [Example 70, 1-(2-(1,2,3,6-TETRAHYDROPYRIDIN-4-YL)-4-(TRIFLUOROMETHYL)PHENYL)-N-(THIAZOL-2-YL)ISOQUINOLINE-6-SULFONAMIDE]
10 nM | O=S(=O)(Nc1ncns1)c1ccc2c(N3CCCC3c3ccccc3)cccc2c1 (stereo not shown) [Example 83]

Same assay, conditions: 293 cells stably transfected with Nav 1.7; second part of table; read-out: Nav1.7 IWQ IC50 IP

IC50 | SMILES
7970 nM | O=C1CCCN1c1cccc2cc(S(=O)(=O)Nc3ncns3)ccc12 [Example 93]
3960 nM | O=S(=O)(Nc1ccncn1)c1ccc2c(OCc3cccnc3)nccc2c1 [Example 128, 1-(PYRIDIN-3-YLMETHOXY)-N-(PYRIMIDIN-4-YL)ISOQUINOLINE-6-SULFONAMIDE]
3300 nM | N#CC1(COc2nccc3cc(S(=O)(=O)Nc4ccncn4)ccc23)CC1 [Example 135, 1-((1-CYANOCYCLOPROPYL)METHOXY)-N-(PYRIMIDIN-4-YL)ISOQUINOLINE-6-SULFONAMIDE]

Same assay, conditions: read-out: Nav 1.7 IWQ percent inhibition at […]; read-out: Nav 1.7 IWQ percent inhibition at 4.9 μM

inhibition at […] | SMILES
22.1% | COc1cc(Cl)ccc1-c1cccc2cc(S(=O)(=O)Nc3cc(C)on3)ccc12 [Example 44]
16% | COc1cnccc1NS(=O)(=O)c1ccc2c(-c3ccc(C(F)(F)F)cc3Cl)nccc2c1 [Example 52, 1-(2-CHLORO-4-(TRIFLUOROMETHYL)PHENYL)-N-(3-METHOXYPYRIDIN-4-YL)ISOQUINOLINE-6-SULFONAMIDE]
